{"source": "patent US10988462B2", "about": "“Pyrazole compounds substituted with heteroaryl and pharmaceutical use thereof” (Japan Tobacco Inc., priority 2018, dated 2021)", "key": {"[1]": {"test_system": "Salmonella typhimurium TA98", "test": "Ames test (reverse mutation test), pre-incubation method, strain TA98", "conditions": "TA98; in the presence of S9 mix", "protocol": "(§1) Ames Test (Reverse Mutation Test)\n(§2) Metabolites 1 to 3 and Metabolites A to E were each tested herein. The purpose of this test is to evaluate the potential of each metabolite to induce reverse mutations in the standard strains of Salmonella typhimurium (TA98, TA1537, TA100, and TA1535) and Escherichia coli (WP2uvrA), in either the presence or absence of a rat liver metabolic activation system (S9 mix).\n(§3) The solvent used herein was dimethyl sulfoxide (DMSO, 100 μL/plate).\n(§4) The test was performed by the pre-incubation method with or without S9 mix. When the test was performed without S9 mix, sodium phosphate buffer solution (pH 7.4) was added.\n(§5) 0.5 mL of S9 mix or 0.5 mL of 0.1 mol/L sodium phosphate buffer solution (pH 7.4), and 0.1 mL of the bacterial culture solution were added to a test tube containing 0.1 mL of the negative control formulation (DMSO alone), the metabolite, or the positive control formulation. The mixtures were pre-incubated at 37° C. for 20 minutes while shaking. After the pre-incubation period, 2 mL of top agar were added and the mixtures were vortex-mixed and seeded onto plates. Two plates per treatment were used. Each plate was incubated at 37±1° C. for 48 hours or more and the revertant colonies were counted. The mean number of revertant colonies for each treatment plate was then calculated. The presence or absence of growth inhibition due to any antibacterial effect of the test article and precipitation of the test article was observed grossly or under a stereomicroscope. […] Evaluation was based on mean values with no statistical comparisons being used."}, "[2]": {"test_system": "Salmonella typhimurium TA1535", "test": "Ames test (reverse mutation test), pre-incubation method, strain TA1535", "format": "cell-based", "conditions": "TA1535", "protocol": "as §1, §2, §3, §4, §5"}, "[3]": {"test_system": "Salmonella typhimurium TA1537", "test": "Ames test (reverse mutation test), pre-incubation method, strain TA1537", "format": "cell-based", "conditions": "TA1537", "protocol": "as §1, §2, §3, §4, §5"}, "[4]": {"test_system": "Salmonella typhimurium TA100", "test": "Ames test (reverse mutation test), pre-incubation method, strain TA100", "format": "cell-based", "conditions": "TA100; in the presence of S9 mix", "protocol": "as §1, §2, §3, §4, §5"}, "[5]": {"test_system": "Escherichia coli WP2uvrA", "test": "Ames test (reverse mutation test), pre-incubation method, strain WP2uvrA", "format": "cell-based", "conditions": "WP2uvrA; in the absence of S9 mix", "text": "as §1\nTwo plates per treatment were used."}}}
{"compound": "Nc1cc(-c2cccc(OCC(F)(F)F)c2)n(-c2ccc(F)cc2)n1", "note": "[Metabolite B, reference compound]", "values": [{"measurement": "potential to induce reverse mutations", "setting": "[1]", "result": "had potential to induce reverse mutations"}, {"measurement": "potential to induce reverse mutations", "setting": "[2]; in the presence of S9 mix", "result": "had potential to induce reverse mutations"}, {"measurement": "potential to induce reverse mutations", "setting": "[3]; in the absence of S9 mix", "result": "had potential to induce reverse mutations"}, {"measurement": "potential to induce reverse mutations", "setting": "[3]; in the presence of S9 mix", "result": "had potential to induce reverse mutations"}, {"measurement": "potential to induce reverse mutations", "setting": "[4]", "result": "had potential to induce reverse mutations"}]}
{"compound": "Cc1ccc(-n2nc(N)cc2-c2cccc(OCC(F)(F)F)c2)cc1", "note": "[Metabolite C, reference compound]", "values": [{"measurement": "potential to induce reverse mutations", "setting": "[5]", "result": "had potential to induce reverse mutations"}, {"measurement": "potential to induce reverse mutations", "setting": "[1]", "result": "had potential to induce reverse mutations"}, {"measurement": "potential to induce reverse mutations", "setting": "[3]; in the presence of S9 mix", "result": "had potential to induce reverse mutations"}, {"measurement": "potential to induce reverse mutations", "setting": "[4]", "result": "had potential to induce reverse mutations"}]}
{"compound": "Nc1cc(-c2cccc(OC(F)(F)F)c2)n(-c2cccc(F)c2)n1", "note": "[Metabolite D, reference compound]", "values": [{"measurement": "potential to induce reverse mutations", "setting": "[2]; in the absence of S9 mix", "result": "had potential to induce reverse mutations"}, {"measurement": "potential to induce reverse mutations", "setting": "[4]", "result": "had potential to induce reverse mutations"}]}
{"compound": "Cc1cccc(-n2nc(N)cc2-c2cccc(OC(F)(F)F)c2)c1", "note": "[Metabolite E, reference compound]", "values": [{"measurement": "potential to induce reverse mutations", "setting": "[1]", "result": "had potential to induce reverse mutations"}, {"measurement": "potential to induce reverse mutations", "setting": "[3]; in the presence of S9 mix", "result": "had potential to induce reverse mutations"}, {"measurement": "potential to induce reverse mutations", "setting": "[4]", "result": "had potential to induce reverse mutations"}]}
